Values joined by “and” are separate entries in the source; they are usually repeats but may differ in a detail not shown here. Equal values may be shown once.
How the values were obtained:
[1] = target: T1, 5-hydroxytryptamine receptor 1F (Homo sapiens, UniProt P30939)
T1 sequence (P30939 whole entry): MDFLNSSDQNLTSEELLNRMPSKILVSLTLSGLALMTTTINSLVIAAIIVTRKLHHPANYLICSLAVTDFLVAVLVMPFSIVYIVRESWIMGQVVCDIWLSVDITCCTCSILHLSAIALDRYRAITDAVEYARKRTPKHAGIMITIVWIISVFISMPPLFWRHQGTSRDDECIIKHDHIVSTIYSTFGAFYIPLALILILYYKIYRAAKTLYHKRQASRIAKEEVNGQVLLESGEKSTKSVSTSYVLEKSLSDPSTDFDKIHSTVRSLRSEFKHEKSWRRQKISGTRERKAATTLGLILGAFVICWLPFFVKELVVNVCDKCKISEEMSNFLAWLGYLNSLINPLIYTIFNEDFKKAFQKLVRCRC

[2] = target: 5-hydroxytryptamine receptor 1B (Homo sapiens, UniProt P28222)
[3] = target: 5-hydroxytryptamine receptor 2B (Homo sapiens, UniProt P41595)
[4] = target: 5-hydroxytryptamine receptor 1E (Homo sapiens, UniProt P28566)
[5] = target: 5-hydroxytryptamine receptor 6 (Homo sapiens, UniProt P50406)
[6] = target: 5-hydroxytryptamine receptor 1D (Homo sapiens, UniProt P28221)
[7] = target: T2, 5-hydroxytryptamine receptor 2C (Homo sapiens, UniProt P28335)
T2 sequence (P28335 whole entry): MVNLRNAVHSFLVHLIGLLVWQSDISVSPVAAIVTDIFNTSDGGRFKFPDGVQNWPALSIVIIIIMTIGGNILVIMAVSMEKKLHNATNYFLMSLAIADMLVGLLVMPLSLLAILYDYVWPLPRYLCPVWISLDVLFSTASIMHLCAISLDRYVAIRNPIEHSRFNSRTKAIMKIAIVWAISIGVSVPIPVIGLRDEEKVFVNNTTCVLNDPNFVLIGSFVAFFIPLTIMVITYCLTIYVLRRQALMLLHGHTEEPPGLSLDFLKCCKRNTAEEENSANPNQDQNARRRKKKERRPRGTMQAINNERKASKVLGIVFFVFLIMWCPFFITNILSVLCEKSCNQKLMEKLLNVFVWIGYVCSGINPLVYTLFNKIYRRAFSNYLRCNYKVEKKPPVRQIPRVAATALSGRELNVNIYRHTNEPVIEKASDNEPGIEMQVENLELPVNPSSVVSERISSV

[8] = target: 5-hydroxytryptamine receptor 2A (Homo sapiens, UniProt P28223)
[9] = target: 5-hydroxytryptamine receptor 7 (Homo sapiens, UniProt P34969)
[10] = target: T3, 5-hydroxytryptamine receptor 1A (Homo sapiens, UniProt P08908)
T3 sequence (P08908 whole entry): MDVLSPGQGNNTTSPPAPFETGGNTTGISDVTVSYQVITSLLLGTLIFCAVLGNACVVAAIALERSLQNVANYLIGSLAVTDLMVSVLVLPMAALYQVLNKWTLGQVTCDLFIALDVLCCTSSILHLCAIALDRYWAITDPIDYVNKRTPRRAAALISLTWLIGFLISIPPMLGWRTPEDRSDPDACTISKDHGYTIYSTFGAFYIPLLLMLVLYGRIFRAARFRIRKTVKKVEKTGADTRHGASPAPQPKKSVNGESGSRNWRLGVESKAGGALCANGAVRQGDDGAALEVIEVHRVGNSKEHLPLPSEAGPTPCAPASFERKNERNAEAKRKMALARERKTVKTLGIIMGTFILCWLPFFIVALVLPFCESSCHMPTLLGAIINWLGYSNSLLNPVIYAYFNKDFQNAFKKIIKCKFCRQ

Sequence of 5-hydroxytryptamine receptor 1E (P28566 whole entry): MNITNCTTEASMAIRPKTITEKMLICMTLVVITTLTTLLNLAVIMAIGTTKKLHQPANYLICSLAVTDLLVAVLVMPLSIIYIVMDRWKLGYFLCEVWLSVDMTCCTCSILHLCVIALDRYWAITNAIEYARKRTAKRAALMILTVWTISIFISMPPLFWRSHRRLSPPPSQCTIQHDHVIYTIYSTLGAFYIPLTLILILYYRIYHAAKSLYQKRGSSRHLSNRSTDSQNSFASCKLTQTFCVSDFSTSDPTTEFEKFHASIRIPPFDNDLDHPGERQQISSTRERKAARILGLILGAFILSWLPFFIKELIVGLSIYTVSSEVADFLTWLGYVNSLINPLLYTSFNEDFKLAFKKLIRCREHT
Sequence of 5-hydroxytryptamine receptor 1D (P28221 whole entry): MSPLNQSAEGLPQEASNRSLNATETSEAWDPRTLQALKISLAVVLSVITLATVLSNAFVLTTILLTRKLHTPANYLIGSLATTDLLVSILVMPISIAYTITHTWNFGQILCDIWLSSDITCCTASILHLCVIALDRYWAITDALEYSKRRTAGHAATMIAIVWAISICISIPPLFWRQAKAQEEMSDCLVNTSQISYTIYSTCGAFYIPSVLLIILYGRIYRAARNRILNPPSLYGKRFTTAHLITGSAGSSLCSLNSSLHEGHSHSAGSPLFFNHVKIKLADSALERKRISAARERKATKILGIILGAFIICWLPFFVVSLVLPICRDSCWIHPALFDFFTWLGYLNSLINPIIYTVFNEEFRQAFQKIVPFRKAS
Sequence of 5-hydroxytryptamine receptor 2B (P41595 whole entry): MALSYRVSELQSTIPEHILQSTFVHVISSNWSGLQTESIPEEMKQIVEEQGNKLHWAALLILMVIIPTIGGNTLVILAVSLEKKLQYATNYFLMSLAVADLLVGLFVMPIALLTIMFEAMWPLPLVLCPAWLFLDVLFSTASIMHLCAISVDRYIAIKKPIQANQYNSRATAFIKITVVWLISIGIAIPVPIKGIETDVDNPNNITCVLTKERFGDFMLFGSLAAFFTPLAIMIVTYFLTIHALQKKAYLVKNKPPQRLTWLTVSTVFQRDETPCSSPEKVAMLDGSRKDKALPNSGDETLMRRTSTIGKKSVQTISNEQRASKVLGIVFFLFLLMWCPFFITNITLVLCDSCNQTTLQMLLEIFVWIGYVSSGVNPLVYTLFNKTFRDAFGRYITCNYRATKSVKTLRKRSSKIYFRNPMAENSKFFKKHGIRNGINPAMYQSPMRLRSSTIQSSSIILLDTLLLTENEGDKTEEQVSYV
Sequence of 5-hydroxytryptamine receptor 1B (P28222 whole entry): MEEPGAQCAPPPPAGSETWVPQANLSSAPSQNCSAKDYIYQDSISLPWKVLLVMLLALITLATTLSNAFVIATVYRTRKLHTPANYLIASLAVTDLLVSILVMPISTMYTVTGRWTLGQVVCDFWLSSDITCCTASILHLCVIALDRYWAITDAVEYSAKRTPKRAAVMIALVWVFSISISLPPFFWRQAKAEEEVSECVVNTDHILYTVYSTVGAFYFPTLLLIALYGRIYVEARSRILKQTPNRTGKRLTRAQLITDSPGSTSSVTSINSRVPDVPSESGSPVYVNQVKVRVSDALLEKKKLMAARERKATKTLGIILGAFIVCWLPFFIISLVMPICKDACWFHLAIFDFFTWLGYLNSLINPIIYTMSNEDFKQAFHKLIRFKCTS
Sequence of 5-hydroxytryptamine receptor 2A (P28223 whole entry): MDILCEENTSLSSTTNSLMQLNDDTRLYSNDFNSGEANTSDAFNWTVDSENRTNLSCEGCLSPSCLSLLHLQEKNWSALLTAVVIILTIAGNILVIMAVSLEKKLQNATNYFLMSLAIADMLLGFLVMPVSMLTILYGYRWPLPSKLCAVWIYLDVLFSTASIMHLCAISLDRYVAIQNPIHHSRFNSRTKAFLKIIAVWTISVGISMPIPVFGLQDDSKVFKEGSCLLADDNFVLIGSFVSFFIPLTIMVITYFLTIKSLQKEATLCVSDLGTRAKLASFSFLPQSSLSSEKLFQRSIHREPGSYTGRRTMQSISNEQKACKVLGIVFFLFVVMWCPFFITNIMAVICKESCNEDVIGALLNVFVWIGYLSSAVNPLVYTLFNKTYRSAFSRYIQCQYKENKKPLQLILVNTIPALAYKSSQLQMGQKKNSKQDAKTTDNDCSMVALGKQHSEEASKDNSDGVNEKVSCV
Sequence of 5-hydroxytryptamine receptor 6 (P50406 whole entry): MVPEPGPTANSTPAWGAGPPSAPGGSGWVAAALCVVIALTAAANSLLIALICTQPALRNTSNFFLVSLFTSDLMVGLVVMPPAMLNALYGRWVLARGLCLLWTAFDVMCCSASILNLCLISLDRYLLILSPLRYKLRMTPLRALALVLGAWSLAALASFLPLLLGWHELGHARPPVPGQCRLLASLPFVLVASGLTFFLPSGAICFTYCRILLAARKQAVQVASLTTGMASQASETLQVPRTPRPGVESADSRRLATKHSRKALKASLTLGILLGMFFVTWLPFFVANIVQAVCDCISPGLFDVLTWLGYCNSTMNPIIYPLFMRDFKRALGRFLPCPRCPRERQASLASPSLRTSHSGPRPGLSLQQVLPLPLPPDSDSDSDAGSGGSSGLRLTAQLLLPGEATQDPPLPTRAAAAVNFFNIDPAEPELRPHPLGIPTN
Sequence of 5-hydroxytryptamine receptor 7 (P34969 whole entry): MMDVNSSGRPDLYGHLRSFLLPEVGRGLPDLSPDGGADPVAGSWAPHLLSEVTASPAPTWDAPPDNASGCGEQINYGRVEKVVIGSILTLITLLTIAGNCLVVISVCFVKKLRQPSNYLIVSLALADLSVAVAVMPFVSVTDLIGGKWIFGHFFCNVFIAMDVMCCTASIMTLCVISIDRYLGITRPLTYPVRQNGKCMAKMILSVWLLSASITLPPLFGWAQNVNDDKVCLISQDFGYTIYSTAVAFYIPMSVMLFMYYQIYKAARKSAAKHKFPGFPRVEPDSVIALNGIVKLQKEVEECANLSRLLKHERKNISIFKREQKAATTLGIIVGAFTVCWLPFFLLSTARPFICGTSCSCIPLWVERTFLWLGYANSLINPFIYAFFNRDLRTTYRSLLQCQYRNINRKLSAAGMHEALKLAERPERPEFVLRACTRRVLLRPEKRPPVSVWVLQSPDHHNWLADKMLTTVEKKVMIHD

Ki [1] [µM] | Ki [2] | Ki [3] [µM] | Ki [4] [µM] | Ki [5] [µM] | Ki [7] [µM] | Ki [8] [µM] | Ki [9] [µM] | SMILES | Ki [6] | Ki [10] [µM]
1 | 0.794 µM and 1.26 µM | 0.0398 | 6.31 | 1.26 | 0.631 | 0.251 | 0.501 | OC(CN1CCN(c2cccc(Cl)c2)CC1)C(c1ccccc1)c1ccccc1 (stereo not drawn) | 0.0126 µM and 0.00794 µM | 
0.398 | 0.001 µM and 0.00794 µM | 0.631 | 3.98 | 1.58 | 0.1 | 0.0158 | 0.631 | COc1ccc(NC(=O)c2ccc(-c3ccc(-c4noc(C)n4)cc3C)cc2)cc1N1CCN(C)CC1 [SMR001230745] |  | 0.0631

SMILES | Ki [1] [µM] | Ki [2] | Ki [3] [µM] | Ki [4] [µM] | Ki [5] [µM] | Ki [7] [µM] | Ki [8] [µM] | Ki [9] [µM] | Ki [6] | Ki [10] [µM]
COc1ccc(NC(=O)c2ccc(-c3ccc(-c4noc(C)n4)cc3C)cc2)cc1OCCN(C)C [CAS_3292447] | 1 | 0.001 µM and 0.00794 µM | 1.58 | 1 | 3.16 | 0.158 | 0.0501 | > 10 | 0.0251 µM and 0.0126 µM | 0.501

Source: BindingDB's records for doi:10.1007/pl00005056 (Smithkline Beecham Pharmaceuticals, 1997)
